The values that follow come from patent EP4752149A1, “OXYGEN-CONTAINING FUSED TRICYCLIC DERIVATIVE, AND PREPARATION METHOD THEREFOR AND USE THEREOF” (Tuojie Biotech (Shanghai) Co., Ltd., priority 2023, dated 2025).

Holding throughout (format): cell-based
Experiment [1] deals with Triple-negative breast cancer cells (HCC1806). Nature of the experiment: Inhibitory activity against triple-negative breast cancer cells (HCC1806), CTG cell viability. The following applies: 7 days with compound. The method, then:
Triple-negative breast cancer cells (HCC1806, Nanjing Cobioer Biosciences Co., Ltd.) were cultured using an RPMI 1640 culture medium containing 10% FBS in a cell incubator (37 °C, 5% CO2). On day one, the cells were plated in a 384-well plate at a cell concentration of 200 cells/well and cultured overnight in an incubator. On day two, the cells were treated with compounds. The highest compound concentration was 10 µM and was diluted 3-fold to obtain 9 concentrations, and the final concentration of DMSO was 0.2%. After the cells were cultured in the incubator for another 7 days, the cell viability was tested using a CTG Cell Viability Detection Reagent (MCE); the testing method was consistent with the method provided by the kit. Data were processed using XLfit, and IC50 was calculated. [formula] X: the logarithm of the compound concentration; Y: inhibition%. Table 4. The IC50 (nM) of compounds of the present disclosure against HCC1806

The test system of experiment [2] is Ovarian cancer cells (OVCAR3). Put plainly: Inhibitory activity against ovarian cancer cells (OVCAR3), CTG cell viability. The following applies: Homo sapiens, OVCAR-3, 168 h, 7 days with compound. As to the method:
Ovarian cancer cells (OVCAR3) were cultured using an RPMI 1640 culture medium containing 10% FBS in a cell incubator (37 °C, 5% CO2). On day one, the cells were plated in a 384-well plate at a cell concentration of 800 cells/well and cultured overnight in an incubator. On day two, the cells were treated with compounds. The highest compound concentration was 10 µM and was diluted 3-fold to obtain 9 concentrations, and the final concentration of DMSO was 0.1%. After the cells were cultured in the incubator for another 7 days, the cell viability was tested using a CTG Cell Viability Detection Reagent (MCE); the testing method was consistent with the method provided by the kit. Data were processed using GraphPad Prism 8, and IC50 was calculated. [formula] X: the logarithm of the compound concentration; Y: inhibition%. Table 2. The IC50 (nM) of compounds of the present disclosure against OVCAR3

Experiment [3] concerns MCF-7/Palbo-R. Put plainly: Inhibitory activity against CDK4/6 inhibitor-resistant human breast cancer cells (MCF-7 palbociclib-resistant cell line), cell viability. As to conditions: 5 days with compound, CellTiter-Glo cell viability. The method, then:
MCF-7/Palbo-R cell source: MCF7 cells (Nanjing Cobioer Biosciences Co., Ltd.) were treated with 1 µM palbociclib for a long time, and drug resistance was induced.
The palbociclib-resistant breast cancer cell line MCF-7/Palbo-R was cultured using a DMEM culture medium containing 10% FBS in a cell incubator (37 °C, 5% CO2). On day one, the cells were plated in a 384-well plate at a cell concentration of 800 cells/well and cultured overnight in an incubator. On day two, the cells were treated with compounds. The highest compound concentration was 10 µM and was diluted 3-fold to obtain 9 concentrations, and the final concentration of DMSO was 0.2%. After the cells were cultured in the incubator for another 5 days, the cell viability was tested using a CellTiter-Glo luminescent cell viability assay kit; the testing method was consistent with the method provided by the kit. Data were processed using XLfit, and IC50 was calculated.
The inhibition rates (IR) of the test compounds were calculated using the following formula: IR (%) = (1 - (RLU compound - RLU blank control) / (RLU vehicle control-RLU blank control)) × 100%. Table 16. The IC50 (nM) of a compound of the present disclosure against MCF-7/Palbo-R
(ATP-based viability assays read luminescence as a measure of living cells.)

The test system of experiment [4] is Human prostate cancer cells (22RV1). Put plainly: Inhibitory activity against human prostate cancer cells (22RV1), CTG cell viability. As to conditions: 5 days with compound. As to the method: (§1) Human prostate cancer cells (22RV1) were cultured using an RPMI 1640 culture medium containing 10% FBS in a cell incubator (37 °C, 5% CO2). On day one, the cells were plated in a 384-well plate at a cell concentration of 500 cells/well and cultured overnight in an incubator. On day two, the cells were treated with compounds. The highest compound concentration was 10 µM and was diluted 3-fold to obtain 9 concentrations, and the final concentration of DMSO was 0.2%. After the cells were cultured in the incubator for another 5 days, the cell viability was tested using a CTG Cell Viability Detection Reagent; the testing method was consistent with the method provided by the kit. Data were processed using XLFit, and IC50 was calculated. [formula] X: the logarithm of the compound concentration; Y: % inhibition. Table 12. The IC50 (nM) of a compound of the present disclosure against 22RV1

The test system of experiment [5] is Human non-small cell lung cancer cells (A549). Put plainly: Inhibitory activity against human non-small cell lung cancer cells (A549), CTG cell viability. The following applies: 5 days with compound. As to the method:
as §1, with “non-small cell lung” for “prostate”, “(A549)” for “(22RV1)”, “F12K” for “RPMI 1640”, “300” for “500”, “10.” for “12.”, “A549” for “22RV1”

For experiment [6], the system named is Human breast cancer cells (MDA-MB-231). Nature of the experiment: Inhibitory activity against human breast cancer cells (MDA-MB-231), CTG cell viability. As to conditions: 7 days with compound. As to the method: (§2) Human breast cancer cells (MDA-MB-231) were cultured using a DMEM culture medium containing 10% FBS in a cell incubator (37 °C, 5% CO2). On day one, the cells were plated in a 384-well plate at a cell concentration of 600 cells/well and cultured overnight in an incubator. On day two, the cells were treated with compounds. The highest compound concentration was 10 µM and was diluted 3-fold to obtain 9 concentrations, and the final concentration of DMSO was 0.2%. After the cells were cultured in the incubator for another 7 days, the cell viability was tested using a CTG Cell Viability Detection Reagent; the testing method was consistent with the method provided by the kit. Data were processed using XLFit, and IC50 was calculated. [formula] X: the logarithm of the compound concentration; Y: % inhibition. Table 8. The IC50 (nM) of a compound of the present disclosure against MDA-MB-231

Experiment [7] has as its system Human breast cancer cells (SUM-149PT). Put plainly: Inhibitory activity against human breast cancer cells (SUM-149PT), CTG cell viability. The following applies: 5 days with compound. As to the method: as §2, with “cells (SUM-149PT)” for “cells (MDA-MB-231)”, “of 800” for “of 600”, “another 5” for “another 7”, “Table 14.” for “Table 8.”, “against SUM-149PT” for “against MDA-MB-231”

Each structure is given as a SMILES string.

Broadly, the IC50 is the point on the concentration scale where inhibition reaches its midpoint. Regarding `CNC(=O)c1ccc(Nc2ncc(F)c(-c3cc(F)c4nc(C(C)(C)O)n5c4c3OC[C@@H]5C)n2)cc1` [Example 3, (S)-4-((5-Fluoro-4-(8-fluoro-2-(2-hydroxypropan-2-yl)-3-methyl-3,4-dihydro-5-oxa-1,2a-diazaacenaphthylen-6-yl)pyrimidin-2-yl)amino)-N-methylbenzamide], the IC50 in experiment [1] (Homo sapiens, 168 h) amounted to 0.172 µM; in experiment [2], 0.197 µM.

On to `C[C@H]1COc2c(-c3nc(Nc4ccc(N5CCOCC5=O)cc4F)ncc3Cl)cc(F)c3nc(C4(O)CCCC4)n1c23` [Example 44, (S)-4-(4-((5-Chloro-4-(8-fluoro-2-(1-hydroxycyclopentyl)-3-methyl-3,4-dihydro-5-oxa-1,2a-diazaacenaphthylen-6-yl)pyrimidin-2-yl)amino)-3-fluorophenyl)morpholin-3-one], for which the IC50 in experiment [1] (Homo sapiens, 168 h) is 0.199 µM; in experiment [2], 0.574 µM.

In the case of `C[C@H]1COc2c(-c3nc(Nc4ccc(N5CCOCC5=O)cc4F)ncc3F)cc(F)c3nc(C(C)(C)O)n1c23` [Example 4, (S)-4-(3-Fluoro-4-((5-fluoro-4-(8-fluoro-2-(2-hydroxypropan-2-yl)-3-methyl-3,4-dihydro-5-oxa-1,2a-diazaacenaphthylen-6-yl)pyrimidin-2-yl)amino)phenyl)morpholin-3-one], the IC50 in experiment [1] (Homo sapiens, 168 h) is 0.279 µM; in experiment [2], 0.348 µM.

As for `CC(=O)c1c(C)c2cnc(Nc3ccc(N4CCNCC4)cn3)nc2n(C2CCCC2)c1=O` [Palbociclib], in experiment [3] (Homo sapiens, MCF7, 120 h), the IC50 is more than 2 µM.

Take `CNS(=O)(=O)c1ccc(Nc2ncc(Cl)c(-c3cc(F)c4nc(C(C)(C)O)n5c4c3OC[C@@H]5C)n2)c(F)c1` [Example 7, (S)-4-((5-Chloro-4-(8-fluoro-2-(2-hydroxypropan-2-yl)-3-methyl-3,4-dihydro-5-oxa-1,2a-diazaacenaphthylen-6-yl)pyrimidin-2-yl)amino)-3-fluoro-N-methylbenzenesulfonamide]: the IC50 turned out to be 0.342 µM in experiment [1] (Homo sapiens, 168 h) and 0.669 µM in experiment [2].

As for `CC(C)c1nc2c(F)cc(-c3nc(Nc4ccc(N5CCOCC5=O)cc4F)ncc3F)c3c2n1[C@@H](C)CO3` [Example 27, (S)-4-(3-Fluoro-4-((5-fluoro-4-(8-fluoro-2-isopropyl-3-methyl-3,4-dihydro-5-oxa-1,2a-diazaacenaphthylen-6-yl)pyrimidin-2-yl)amino)phenyl)morpholin-3-one], the IC50 in experiment [1] (Homo sapiens, 168 h) came to 0.303 µM; in experiment [2], 0.573 µM.

For `C[C@H]1COc2c(-c3nc(Nc4ccc(N5CCNCC5=O)cc4F)ncc3Cl)cc(F)c3nc(C(C)(C)O)n1c23` [Example 23, (S)-1-(4-((5-Chloro-4-(8-fluoro-2-(2-hydroxypropan-2-yl)-3-methyl-3,4-dihydro-5-oxa-1,2a-diazaacenaphthylen-6-yl)pyrimidin-2-yl)amino)3-fluorophenyl)piperazin-2-one], the IC50 in experiment [1] (Homo sapiens, 168 h) came out at 0.386 µM.

For `COC(C)c1nc2c(F)cc(-c3nc(Nc4ccc(N5CCOCC5=O)cc4F)ncc3F)c3c2n1[C@@H](C)CO3` (stereo partly drawn) [Example 22, 4-(3-Fluoro-4-((5-fluoro-4-((3S)-8-fluoro-2-(1-methoxyethyl)-3-methyl-3,4-dihydro-5-oxa-1,2a-diazaacenaphthylen-6-yl)pyrimidin-2-yl)amino)phenyl)morpholin-3-one], the half-maximal inhibitory concentration (IC50) is 0.406 µM in experiment [1] (Homo sapiens, 168 h) and 0.825 µM in experiment [2].

Regarding `C[C@H]1COc2c(-c3nc(Nc4ccc(N5CCOCC5=O)cc4)ncc3Cl)cc(F)c3nc(C(C)(C)O)n1c23` [Example 10, (S)-4-(4-((5-Chloro-4-(8-fluoro-2-(2-hydroxypropan-2-yl)-3-methyl-3,4-dihydro-5-oxa-1,2a-diazaacenaphthylen-6-yl)pyrimidin-2-yl)amino)phenyl)morpholin-3-one], the half-inhibitory concentration (IC50) in experiment [2] is 0.231 µM.

As for `COCc1nc2c(F)cc(-c3nc(Nc4ccc(N5CCOCC5=O)cc4F)ncc3F)c3c2n1[C@@H](C)CO3` [Example 26, (S)-4-(3-Fluoro-4-((5-fluoro-4-(8-fluoro-2-(methoxymethyl)-3-methyl-3,4-dihydro-5-oxa-1,2a-diazaacenaphthylen-6-yl)pyrimidin-2-yl)amino)phenyl)morpholin-3-one], the IC50 in experiment [2] stood at 0.517 µM.

On to `COCc1cc(C(=O)Nc2cc([C@H]3CC[C@@H](OC(=O)NC(C)C)C3)[nH]n2)n(C)n1` [PF-07104091, reference compound], for which the IC50 was determined as 2.7 µM in experiment [4]; 1.13 µM in experiment [5]; 0.936 µM in experiment [1]; 1.25 µM in experiment [6]; 1.34 µM in experiment [7]; 0.836 µM in experiment [3].

For `CC(C)n1c(C(C)(C)O)nc2c(F)cc(-c3nc(N[C@@H]4CCOC[C@H]4O)ncc3Cl)cc21` [PF-07220060], the concentration for half-maximal inhibition (IC50) in experiment [5] stood at 1.87 µM; in experiment [1], 1.59 µM; in experiment [6], 0.567 µM; in experiment [3], 0.967 µM.
